Assay results published in patent publication US20260115189A1, “Combination Treatment Regimens - SMARCA2 Degrader With Taxane Anticancer Agent” (PRELUDE THERAPEUTICS INCORPORATED, priority 2023, published 2026).
“Also recorded” adds a separate entry of the source. Read-outs that look alike come from different tables or passages of the source.

Columns and labels:
[1] = system: SMARCA4-deficient A549 Lung Cancer Xenograft; conditions: for Tumor size: day 28, mean ± SEM
Experimental: (§1) As used herein, tumor growth inhibition is calculated as follows: Mean % Inhibition=(mean(C)−mean(T))/mean(C)*100%, wherein C is the tumor volume in the control arm, and T is the tumor volume in the treatment arm.
The A549 tumor cells were maintained in vitro with Ham's F12K medium supplemented with 10% fetal bovine serum at 37° C. in an atmosphere of 5% CO2 in air. The cells in exponential growth phase were harvested and quantitated by cell counter before tumor inoculation. BALB/c nude female mice were inoculated subcutaneously in the right front flank region with A549 tumor cells (5×10^6) in 0.1 ml of PBS for tumor development. The randomization was performed when the mean tumor size reaches approximately 100-150 mm^3.
(§2) Tumor volumes at the end of studies were evaluated by the Mann-Whitney test (unpaired, nonparametric test). * P<0.05 […], *** P<0.001 versus vehicle are shown in graphs.

[2] = system: SMARCA4-mutated cancer cell lines; experiment: Cell cycle arrest in SMARCA4-mutated cancer cell lines; assay type: cell-based
[3] = system: SMARCA4-WT Calu-6 Lung Cancer Xenograft; conditions: for Tumor size: day 21, mean ± SEM; for Tumor size / TGI (tumor growth inhibition vs vehicle): Formula (I) 100 mg/kg Q3D, docetaxel 5/10 mg/kg QW, combination 100 + 5/10 mg/kg Q3D + QW; for TGI (tumor growth inhibition vs vehicle): day 21
Experimental: as §1
The Calu-6 tumor cells were maintained in vitro with MEM medium supplemented with 10% fetal bovine serum at 37° C. in an atmosphere of 5% CO2 in air. The cells in exponential growth phase were harvested and quantitated by cell counter before tumor inoculation. BALB/c nude female mice were inoculated subcutaneously in the right front flank region with Calu-6 tumor cells (5×10^6) in 0.1 ml of PBS for tumor development. The randomization was performed when the mean tumor size reaches approximately 100-150 mm^3.
as §2

[4] = molecular target: T1, SMARCA2 protein (Homo sapiens, UniProt P51531); experiment: Semi-quantitative western blot of SMARCA2 in tumor tissue; assay type: in vivo, mouse xenograft; conditions: for tumor SMARCA2 protein levels: repeat administration, Formula (I) 100-200 mg/kg s.c. Q3D, over a 24 h period, docetaxel 5-20 mg/kg i.v. QW; for tumor SMARCA2 protein levels relative to vehicle treated mice: tumors collected 4 hr and 24 hr post final dosing, Formula (I) 100 mg/kg s.c. Q3D, docetaxel 10/5 mg/kg i.v. QW
T1 construct: from tissue; host or cells: Frozen xenograft tumor tissue from human lung cancer cells (NCI-H838, A549 or Calu-6) grown subcutaneously in mice
Experimental: SMARCA2 protein expression was measured by semi-quantitative western blot following extraction of protein from frozen tumor tissue. Up to 50 mg of frozen tumor tissue was measured and placed into 0.5 mL conical tubes containing 0.5 mm ceramic beads and 400 μL RIPA buffer containing 1× protease and phosphatase inhibitors (ThermoFisher Scientific, A32959) and PMSF (Cell Signaling Technology, #8553). Tissues were homogenized with a Bead Ruptor Elite at a speed of 5 m/sec for 25 seconds and centrifuged at 12,000 rpm for 3 min at 4° C. Milling and centrifugation steps were performed two additional times before transferring supernatant to UltraFree 0.45 μm 0.5 mL filter columns (Millipore Sigma, #UFC30HV) and centrifuging at 12,000 rpm for 1 min. Flow through lysate was quantified by BCA assay, diluted with 1 volume of RIPA lysis buffer, and mixed with Laemmli sample buffer. Lysates were boiled at 95° C. for 5 min and 30 μg of protein was loaded in 4-20% Criterion TGX Precast Midi Protein Gels (BioRad, #5671095). Protein was transferred to PVDF membranes by Trans-Blot Turbo system (Bio-Rad) and probed with Actin (Signma, #A2228) and SMARCA2 (Cell Signaling Technology, #11966) primary antibodies at a 1:1000 dilution and IRDye 800CW or IRDye 680RD secondary antibodies (LICOR, antibody, #926-68070) in iBind automated western system (ThermoFisher Scientific). The stained blots were scanned by LiCOR Odyssey CLx imaging system to acquire integrated intensities at 700 nm and 800 nm channel and analyzed using Image Studio software v5.2.

[5] = system: NCI-H838 cells (SMARCA4-del NSCLC cell line); experiment: Cell cycle analysis by flow cytometry (EdU / DRAQ5); assay type: cell-based, human; conditions: NCI-H838, single agent, 48 hrs
Experimental: Cells were seeded, incubated overnight, and dosed with drug treatments the next day. 2 hours before collection, cells were incubated with 10 μM EdU at 37 C then harvested using trypsin EDTA and washed with PBS/1% BSA. 4% PFA was added to the cells followed by a 15 minute incubation at RT. Cell were washed again with PBS/1% BSA and resuspended in 1X Click-iT® saponin-based permeabilization reagent for 15-minutes. Following centrifugation, supernatant was removed, and cells were incubated for 30 mins at RT, protected from light, in Click-iT® reaction cocktail, which was prepared according to manufacturer's instructions. Cells were then washed once with 0.01% Triton in PBS and resuspended in PBS. DRAQ5™ was added to cells at 1:200 dilution, incubated at room temperature, preventing exposure to light, for 30-60 min. Lastly, cells were washed with PBS/1% BSA and resuspended in 400 μl PBS/1% BSA. EdU with Pacific Blue™ azide and was detected using 405 nm excitation with a violet emission filter (450/50 nm) on a flow cytometer and analyzed using FlowJo software.
The combination effects of Formula (I) and docetaxel on the cell cycle was analyzed in a SMARCA4-deficient NSCLC lung cancer cell line by flow cytometry using DraQ5 and Click-iT EdU Pacific Blue. […]

[6] = system: SMARCA4-mutated NCI-H838 tumor tissues; experiment: RNA-sequencing and Gene Set Enrichment Analysis of treated tumor tissues; assay type: in vivo; conditions: NCI-H838 tumor tissues treated for one week
Experimental: To elucidate the mechanism of action for the combination effects observed in vivo, RNA-sequencing was conducted on SMARCA4-mutated NCI-H838 tumor tissues treated with Formula (I) and/or docetaxel for one week.

[7] = system: SMARCA4-deficient NCI-H838 Lung Cancer Xenograft; conditions: for Tumor size: day 20, mean ± SEM; for Tumor size / TGI (tumor growth inhibition vs vehicle): combination of both regimens; for TGI (tumor growth inhibition vs vehicle): day 20
Experimental: as §1
The NCI-H838-#5 tumor cells were maintained in vitro with RPMI1640 medium supplemented with 10% fetal bovine serum at 37° C. in an atmosphere of 5% CO2 in air. The cells in exponential growth phase were harvested and quantitated by cell counter before tumor inoculation. NOD-SCID female mice were inoculated subcutaneously in the right front flank region with NCI-H838-#5 tumor cells (5×10^6) in 0.1 ml of PBS mixed with Matrigel (1:1) for tumor development. The randomization was performed when the mean tumor size reaches approximately 100-150 mm^3.
as §2

[8] = system: SMARCA4 wild-type cell lines; experiment: Cell cycle arrest in SMARCA4 wild-type cell lines; assay type: cell-based
[9] = as printed in text: Formula (I) 200 mg/kg s.c. Q3D, docetaxel 5-20 mg/kg i.v. QW, combination Formula (I) 100 mg/kg s.c. Q3D + docetaxel 5-20 mg/kg i.v. QW
[10] = Formula (I) 100 mg/kg s.c. Q3D, docetaxel 5/10/20 mg/kg QW, combination 200 + 5/10/20 mg/kg Q3D + QW
[11] = day 28, Formula (I) 100 mg/kg s.c. Q3D, docetaxel 5/10/20 mg/kg QW, combination 200 + 5/10/20 mg/kg Q3D + QW
[12] = Formula (I) 100 mg/kg s.c. Q3D, docetaxel 10/5 mg/kg i.v. QW

T1 sequence (P51531 whole entry): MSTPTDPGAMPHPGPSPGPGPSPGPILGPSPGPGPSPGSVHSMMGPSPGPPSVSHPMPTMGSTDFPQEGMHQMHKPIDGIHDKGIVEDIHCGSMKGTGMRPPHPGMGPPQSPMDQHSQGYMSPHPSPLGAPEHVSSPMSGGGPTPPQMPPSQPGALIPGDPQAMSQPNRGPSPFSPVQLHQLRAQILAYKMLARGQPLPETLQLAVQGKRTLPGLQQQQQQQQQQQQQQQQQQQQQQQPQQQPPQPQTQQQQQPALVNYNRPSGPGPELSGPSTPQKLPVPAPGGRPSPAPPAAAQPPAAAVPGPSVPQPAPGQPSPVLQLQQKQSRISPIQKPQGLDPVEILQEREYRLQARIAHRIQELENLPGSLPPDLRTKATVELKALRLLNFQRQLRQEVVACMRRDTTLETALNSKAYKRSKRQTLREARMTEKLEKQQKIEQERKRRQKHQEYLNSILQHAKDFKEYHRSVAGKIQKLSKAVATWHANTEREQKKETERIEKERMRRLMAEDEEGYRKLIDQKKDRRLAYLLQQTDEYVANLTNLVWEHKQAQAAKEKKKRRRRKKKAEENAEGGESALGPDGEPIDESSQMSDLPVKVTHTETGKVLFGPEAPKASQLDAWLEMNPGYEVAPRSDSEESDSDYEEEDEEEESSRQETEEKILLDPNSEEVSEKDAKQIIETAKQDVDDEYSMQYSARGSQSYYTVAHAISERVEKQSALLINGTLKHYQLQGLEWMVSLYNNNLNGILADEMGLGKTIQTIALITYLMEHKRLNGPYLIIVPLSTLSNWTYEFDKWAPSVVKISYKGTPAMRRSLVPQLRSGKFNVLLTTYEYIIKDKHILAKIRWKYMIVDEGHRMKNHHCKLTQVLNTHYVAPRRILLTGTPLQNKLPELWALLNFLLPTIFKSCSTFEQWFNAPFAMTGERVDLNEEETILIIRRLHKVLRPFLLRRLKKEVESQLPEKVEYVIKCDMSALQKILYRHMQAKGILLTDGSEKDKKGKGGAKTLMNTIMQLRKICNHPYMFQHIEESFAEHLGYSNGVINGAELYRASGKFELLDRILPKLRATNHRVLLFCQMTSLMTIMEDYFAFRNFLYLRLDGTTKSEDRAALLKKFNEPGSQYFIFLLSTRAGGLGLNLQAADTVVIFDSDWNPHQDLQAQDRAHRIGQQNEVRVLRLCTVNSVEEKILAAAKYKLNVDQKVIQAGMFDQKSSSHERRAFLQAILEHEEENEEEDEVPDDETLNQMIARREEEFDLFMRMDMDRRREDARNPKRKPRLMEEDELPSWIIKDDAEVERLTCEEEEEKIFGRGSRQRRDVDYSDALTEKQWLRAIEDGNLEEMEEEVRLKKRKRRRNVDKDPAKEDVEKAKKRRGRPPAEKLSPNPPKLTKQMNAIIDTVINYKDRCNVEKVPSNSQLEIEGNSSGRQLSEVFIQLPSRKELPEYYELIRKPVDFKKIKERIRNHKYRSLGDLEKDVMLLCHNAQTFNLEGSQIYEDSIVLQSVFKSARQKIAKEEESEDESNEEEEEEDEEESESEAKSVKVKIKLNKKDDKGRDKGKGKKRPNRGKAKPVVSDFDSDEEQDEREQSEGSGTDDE

Structure (SMILES) | TGI (tumor growth inhibition vs vehicle) [1, 9] | Tumor size [1, 10] | TGI (tumor growth inhibition vs vehicle) [1, 11] | cell cycle arrest [2] | Tumor size [3] | TGI (tumor growth inhibition vs vehicle) [3] | tumor SMARCA2 protein levels [4] | tumor SMARCA2 protein levels relative to vehicle treated mice [4] | cell cycle arrest [5] | Gene Set Enrichment Analysis: E2F targets and G2/M pathways [6] | Tumor size [7, 12] | TGI (tumor growth inhibition vs vehicle) [7, 12] | TGI (tumor growth inhibition vs vehicle) ([7]; Formula (I) 100 mg/kg s.c. Q3D, docetaxel 10/5 mg/kg i.v. QW, listed as docetaxel) | tolerability (morbidity, body weight) ([1]; Formula (I) s.c. Q3D, docetaxel 5-20 mg/kg i.v. QW, combination) | G1 cell cycle arrest [8] | tolerability (morbidity, body weight) ([3]; Formula (I) 100 mg/kg s.c. Q3D, docetaxel 5/10 mg/kg i.v. QW, combination) | growth of SMARCA4 WT Calu-6 lung tumor xenografts ([3]; Formula (I) at efficacious dosing regimens) | tolerability (morbidity, body weight) ([7]; Formula (I) 100 mg/kg s.c. Q3D, docetaxel 10/5 mg/kg i.v. QW, combination of both, one Formula (I) dosing holiday on day 12 in combination) | tolerability (morbidity, body weight) ([7]; single agents: Formula (I) 50 or 75 mg/kg i.v. QW, nab-paclitaxel 30 mg/kg i.v. Q3W)
CC(=O)O[C@@]12CO[C@@H]1C[C@H](O)[C@@]1(C)C(=O)[C@H](O)C3=C(C)[C@@H](OC(=O)[C@H](O)[C@@H](NC(=O)OC(C)(C)C)c4ccccc4)C[C@@](O)([C@@H](OC(=O)c4ccccc4)[C@H]21)C3(C)C [Docetaxel, reference compound] | 13% | 2,223 ± 300 mm^3 | 13.3% (day | induced G2/M arrest | 1,338 ± 132 mm^3 | 37.6% (day | no effect | no effect; also recorded: unaffected | dose dependent G2/M arrest signal | positive enrichment of E2F targets and G2/M pathways | 971.86 ± 127.82 mm^3 | 55.0% (day | 55% |  |  |  |  |  | 
Cc1ncsc1-c1ccc([C@H](C)NC(=O)[C@@H]2C[C@@H](O)CN2C(=O)[C@@H](c2cc(O[C@@H](C)CN3CC[C@@H](N4CCN5c6cc(-c7ccccc7O)nnc6NC[C@H]5C4)C3)no2)C(C)C)cc1 [Formula (I)] | 32% | 1,785 ± 221 mm^3 | 31.6% (day | induced G1 cell cycle arrest | 1,535 ± 174 mm^3 | 27.2% (day | complete reduction | significantly decreased; also recorded: abolished | dose dependent G1 arrest signal | downregulating E2F targets and G2/M pathways | 590.46 ± 102.37 mm^3 |  |  | well tolerated | not in SMARCA4 wild-type cell lines | well tolerated | did not inhibit the growth | well tolerated | well tolerated
